ChEMBL document CHEMBL4765487, “From a Designer Drug to the Discovery of Selective Cannabinoid Type 2 Receptor Agonists with Favorable Pharmacokinetic Profiles for the Treatment of Systemic Sclerosis” (J Med Chem, 2021)
Calls of active or inactive are those of the source. No cut-off for these calls is given here.

Experiments:
[1] = target: T1, Cannabinoid receptor 2 (Homo sapiens, UniProt P34972); test: Agonist activity at human CB2 receptor expressing CHO cells co-expressing Galpha16 by calcium mobilization assay relative to CP55940; assay type: functional, cell-based
T1 sequence (P34972 whole entry): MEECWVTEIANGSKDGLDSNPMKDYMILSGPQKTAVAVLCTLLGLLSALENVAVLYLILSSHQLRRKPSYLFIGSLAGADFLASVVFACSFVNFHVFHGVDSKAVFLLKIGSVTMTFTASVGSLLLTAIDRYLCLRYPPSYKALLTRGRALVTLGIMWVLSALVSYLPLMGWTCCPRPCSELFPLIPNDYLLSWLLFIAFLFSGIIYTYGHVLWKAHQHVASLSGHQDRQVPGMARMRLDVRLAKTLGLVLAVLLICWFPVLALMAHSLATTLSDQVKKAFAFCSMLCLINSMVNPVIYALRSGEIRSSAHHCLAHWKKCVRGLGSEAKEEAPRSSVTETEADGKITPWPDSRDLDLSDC

[2] = target: T2, Cannabinoid receptor 1 (Homo sapiens, UniProt P21554); test: Agonist activity at human CB1 receptor expressing CHO cells co-expressing Galpha16 by calcium mobilization assay; assay type: functional, cell-based
T2 sequence (P21554 whole entry): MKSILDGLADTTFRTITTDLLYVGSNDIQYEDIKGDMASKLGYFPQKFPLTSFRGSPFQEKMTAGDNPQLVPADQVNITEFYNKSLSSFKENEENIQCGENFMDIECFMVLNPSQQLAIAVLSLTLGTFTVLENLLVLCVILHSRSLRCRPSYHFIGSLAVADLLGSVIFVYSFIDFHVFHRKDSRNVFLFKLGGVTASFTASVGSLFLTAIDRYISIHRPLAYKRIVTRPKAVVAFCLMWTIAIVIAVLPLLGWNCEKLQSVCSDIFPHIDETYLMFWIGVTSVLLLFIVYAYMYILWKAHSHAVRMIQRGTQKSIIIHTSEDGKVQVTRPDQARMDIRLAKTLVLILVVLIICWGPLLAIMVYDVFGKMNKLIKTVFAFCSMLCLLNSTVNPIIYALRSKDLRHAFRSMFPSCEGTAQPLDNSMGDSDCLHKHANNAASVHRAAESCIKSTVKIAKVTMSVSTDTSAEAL

[3] = target: T1, Cannabinoid receptor 2; test: Agonist activity at human CB2 receptor expressing CHO cells co-expressing Galpha16 by calcium mobilization assay; assay type: functional, cell-based
[4] = target: T2, Cannabinoid receptor 1; test: Agonist activity at human CB1 receptor expressing CHO cells co-expressing Galpha16 by calcium mobilization assay relative to CP55940; assay type: functional, cell-based
[5] = target: T1, Cannabinoid receptor 2; test: Antagonist activity at human CB2 receptor expressing CHO cells co-expressing Galpha16 assessed as inhibition of CP55940-induced calcium mobilization pre-incubated for 15 mins before CP55940 addition; assay type: functional, cell-based
[6] = target: T2, Cannabinoid receptor 1; test: Agonist activity at CB1 receptor (unknown origin)
[7] = target: T1, Cannabinoid receptor 2; test: Agonist activity at CB2 receptor (unknown origin) relative to control; conditions: filed as agonist
[8] = target: T2, Cannabinoid receptor 1; test: Agonist activity at CB1 receptor (unknown origin) relative to control; conditions: filed as agonist
[9] = in vitro; conditions: human, liver
[10] = in vitro; conditions: human, liver microsomes
[11] = in vitro; conditions: human, liver microsomes; remark: listed apart in the source
Description: Stability in human liver microsomes assessed as parent compound remaining at 1 uM incubated for 60 mins in presence of NADPH by LC-MS/MS analysis

[12] = in vitro; conditions: human, liver microsomes; remark: listed apart in the source
Description: Half life in human liver microsomes at 1 uM in presence of NADPH by LC-MS/MS analysis

[13] = target: T2, Cannabinoid receptor 1; test: Agonist activity at human CB1 receptor expressing CHO cells co-expressing Galpha16 at 10 uM by calcium mobilization assay; assay type: functional, cell-based; conditions: filed as agonist
[14] = target: T2, Cannabinoid receptor 1; test: Induction of receptor desensitization at human CB1 receptor expressing CHO cells co-expressing Galpha16 at 10 uM followed by washing with HBSS buffer upon incubation for 10 mins and restimulated with CP55940 by calcium mobilization assay; assay type: functional, cell-based; conditions: filed as agonist

Structure (SMILES)	Emax ([1]; filed as agonist) [%]	EC50 [2] [µM]	EC50 [3] [nM]	Emax ([4]; filed as agonist) [%]	also measured
CCCCCCn1nc(C(=O)NC(C)(C)CO)cc1C(C)(C)C	100	0.047	13.4	100	–
CCCCCn1nc(C(C)(C)C)cc1C(=O)NCc1ccc(Cl)cc1	–	100	100000	–	–
CCCCCn1nc(C(=O)NC(C)(C)CO)c(Cl)c1C(C)(C)C	100	0.0339	3.4	50	IC50 ([5]; cho): Not Active
CC(C)(CO)NC(=O)c1cc(C(C)(C)C)n(-c2ccc(C(F)(F)F)cc2)n1	–	100	100000	–	–
CCCCCn1nc(C(=O)NC(C)(C)CO)cc1C1CC1	–	100	100000	–	IC50 ([5]; cho): Not Active
CCCCCn1cc(C(=O)NC23CC4CC(CC(C4)C2)C3)c2ccccc21	–	–	–	–	EC50 [6]: 34 nM; Emax [7]: 91%; Emax [8]: 98%
CCCCCn1nc(C(=O)Nc2ccncc2)cc1C(C)(C)C	60	0.221	118	–	Emax [4]: 30%
CCCCCn1nc(C(=O)NCc2ccc(Cl)cc2)cc1C(C)(C)C	–	100	100000	–	–
CC(C)(CO)NC(=O)c1cc(C(C)(C)C)n(-c2ncccn2)n1	–	100	100000	–	–
CC(C)(CO)NC(=O)c1cc(C(C)(C)C)n(CC2CC2)n1	100	4.9	103	–	Emax [4]: 20%
CC(C)(CO)NC(=O)c1cc(C(C)(C)C)n(CCCCCF)n1	70	0.043	36.4	90	–
O=C(O)Cc1ccccc1Nc1c(Cl)cccc1Cl [DICLOFENAC]	–	–	–	–	CLint scaled at 1 µM [9]: 116 mL/min/kg; microsomal CLint at 1 µM [10]: 129 µL/min/mg
CC(C)(CO)NC(=O)c1cc(C(C)(C)C)n(-c2ncc(C(F)(F)F)cc2Cl)n1	–	100	100000	–	–
CCCCCn1nc(C(=O)NC(C)(C)CO)cc1C(F)(F)F	80	0.187	53.8	80	IC50 ([5]; cho): Not Active
CCCCCn1nc(C(=O)NC(C)(C)CO)cc1C(C)C	70	0.171	38.5	90	IC50 ([5]; cho): Not Active
CC(C)(CO)NC(=O)c1cc(C(C)(C)C)n(-c2ccc(F)cc2)n1	82	100	685	–	–
COc1ccc(-n2nc(C(=O)NC(C)(C)CO)cc2C(C)(C)C)cc1	–	100	100000	–	–
CCCCCn1nc(C(=O)Nc2ccc(Cl)cc2)cc1C(C)(C)C	80	100	2350	–	–
CCCCCn1nc(C(C)(C)C)cc1C(=O)NC12CC3CC(CC(O)(C3)C1)C2	–	100	100000	–	–
CCCCCn1nc(C(C)(C)C)cc1C(=O)NC(C)(C)C	80	100	301	–	–
CCCCn1nc(C(=O)NC(C)(C)CO)cc1C(C)(C)C	100	0.101	10.1	90	–
CC(C)(CO)NC(=O)c1cc(C(C)(C)C)n(-c2ccc(Cl)cn2)n1	50	100	7310	–	–
CC(C)(CO)NC(=O)c1cc(C(C)(C)C)n(-c2ccc(OC(F)(F)F)cc2)n1	–	100	100000	–	–
CCCCCn1nc(C(=O)NC23CC4CC(CC(C4)C2)C3)cc1C(C)(C)C	–	0.271	194	–	Emax ([1]; filed as partial agonist): 58%; Emax ([4]; filed as partial agonist): 69%
CCCCCn1nc(C(=O)N[C@@H](C(=O)OC)C(C)(C)C)cc1C(C)(C)C	100	0.0043	26.1	100	–
COCCn1nc(C(=O)NC(C)(C)CO)cc1C(C)(C)C	–	100	100000	–	–
CCCn1nc(C(=O)NC(C)(C)CO)cc1C(C)(C)C	100	100	210	–	–

Structure (SMILES)	Emax ([1]; filed as agonist) [%]	EC50 [2] [µM]	EC50 [3] [nM]	Emax ([4]; filed as agonist) [%]	also measured
CC(C)(CO)NC(=O)c1cc(C(C)(C)C)n(-c2cccnc2)n1	–	100	100000	–	–
Cc1ccc(-n2nc(C(=O)NC(C)(C)CO)cc2C(C)(C)C)cc1	40	100	197	–	–
CC(C)(CO)NC(=O)c1cc(C(C)(C)C)n(-c2ccc(F)cc2F)n1	80	100	1730	–	–
CC(C)(CO)NC(=O)c1cc(C(C)(C)C)n(-c2ccc(Cl)cc2)n1	100	100	204	–	–
CC(C)(CO)NC(=O)c1cc(C(C)(C)C)n(CCCF)n1	100	100	184	–	–
CC(C)(CO)NC(=O)c1cc(C(C)(C)C)n(-c2ccccn2)n1	80	100	3890	–	–
CC(C)(CO)NC(=O)c1cc(C(C)(C)C)n(-c2ccccc2)n1	–	100	100000	–	–
CC(C)(CO)NC(=O)c1cc(C(C)(C)C)n(-c2ccc(F)cn2)n1	100	100	135	–	–
CCCCCn1nc(C(C)(C)C)cc1C(=O)NC12CC3CC(CC(C3)C1)C2	–	100	100000	–	–
CCCCCn1nc(C(=O)NC23CC4CC(CC(O)(C4)C2)C3)cc1C(C)(C)C	–	0.004	100000	100	–
C[C@]12CC[C@H]3[C@@H](CCC4=CC(=O)CC[C@@]43C)[C@@H]1CC[C@@H]2O [TESTOSTERONE]	–	–	–	–	remaining at 1 h, 1 µM [11]: 10.7%; CLint scaled at 1 µM [9]: 66.3 mL/min/kg; half-life at 1 µM [12]: 18.8 min; microsomal CLint at 1 µM [10]: 73.6 µL/min/mg
CCCCCn1nc(C(=O)NC(C)(C)C)cc1C(C)(C)C	100	0.0072	12	100	–
CCCCCn1nc(C(=O)NC(C)(C)CO)c([N+](=O)[O-])c1C(C)(C)C	70	0.129	13.3	100	IC50 ([5]; cho): Not Active
CCCCCn1nc(C(C)(C)C)cc1C(=O)NC(C)(C)CO	80	100	319	–	–
CCCCCn1nc(C(=O)NC(C)(C)CO)c(Br)c1C(C)(C)C	100	0.027	2	50	IC50 ([5]; cho): Not Active
CCCCCn1nc(C(=O)NC2CCCCC2)cc1C(C)(C)C	80	0.104	46	50	–
CCCCCCC(C)(C)c1ccc([C@@H]2C[C@H](O)CC[C@H]2CCCO)c(O)c1 [CP-55940]	–	–	–	–	IC50 ([5]; cho): Not Active; Activity [13]: Active; Activity [14]: Active
CCCCCn1nc(C(=O)NC(C)(C)CO)cc1CC(C)(C)C	50	0.027	12	90	IC50 ([5]; cho): Not Active
CCCCCn1nc(C(=O)NC(C)(C)CO)cc1-c1ccc(F)cc1F	–	100	100000	–	IC50 ([5]; read-out: IC50): 87.1 nM; remaining at 1 h, 1 µM [11]: 14.1%; CLint scaled at 1 µM [9]: 58.2 mL/min/kg; half-life at 1 µM [12]: 21.4 min; microsomal CLint at 1 µM [10]: 64.6 µL/min/mg
CCCCCn1nc(C(=O)NC(C)(C)CO)cc1C1CCCCC1	–	100	100000	–	IC50 ([5]; cho): Not Active
CCCCCn1nc(C(=O)N[C@@H](C(=O)OC)C(C)C)cc1C(C)(C)C	90	0.0016	7.4	90	remaining at 1 h, 1 µM [11]: 2.9%; CLint scaled at 1 µM [9]: 105 mL/min/kg; half-life at 1 µM [12]: 11.8 min; microsomal CLint at 1 µM [10]: 117 µL/min/mg
CCCCCn1nc(C(=O)NC(C)(C)CO)c(N)c1C(C)(C)C	100	0.195	5.5	80	IC50 ([5]; cho): Not Active; remaining at 1 h, 1 µM [11]: 4.6%; CLint scaled at 1 µM [9]: 94 mL/min/kg; half-life at 1 µM [12]: 13.3 min; microsomal CLint at 1 µM [10]: 104 µL/min/mg
CCCCCn1nc(C(=O)N[C@H](C(=O)OC)C(C)C)cc1C(C)(C)C	100	0.0266	7.2	70	–
CCCCCn1nc(C(=O)NC(C)(C)CO)cc1C(C)(C)C	100	0.0174	2.9	100	remaining at 1 h, 1 µM [11]: 14.9%; CLint scaled at 1 µM [9]: 56.1 mL/min/kg; half-life at 1 µM [12]: 22.2 min; microsomal CLint at 1 µM [10]: 62.4 µL/min/mg
CC(C)(CO)NC(=O)c1cc(C(C)(C)C)n(CCCCF)n1	100	2.85	65.9	100	–
CCCCCn1nc(C(C)(C)C)cc1C(=O)Nc1ccc(Cl)cc1	–	100	100000	–	–
